pIC50: −log10 of the molar value.
Molecular target: phosphodiesterase IX (Homo sapiens (Human), UniProt O76083)
Experiment: Inhibition activity to the phosphodiesterase IX
Assay type: biochemical
Conditions: concentration of the inhibitor when the inhibition rate reaches 50%
Experimental: Inhibition activities of all the N-substituted pyrazolo [3,4-d] pyrimidine ketone compounds according to the present invention to the phosphodiesterase IX are tested.

phosphodiesterase IX, sequence (O76083 whole entry): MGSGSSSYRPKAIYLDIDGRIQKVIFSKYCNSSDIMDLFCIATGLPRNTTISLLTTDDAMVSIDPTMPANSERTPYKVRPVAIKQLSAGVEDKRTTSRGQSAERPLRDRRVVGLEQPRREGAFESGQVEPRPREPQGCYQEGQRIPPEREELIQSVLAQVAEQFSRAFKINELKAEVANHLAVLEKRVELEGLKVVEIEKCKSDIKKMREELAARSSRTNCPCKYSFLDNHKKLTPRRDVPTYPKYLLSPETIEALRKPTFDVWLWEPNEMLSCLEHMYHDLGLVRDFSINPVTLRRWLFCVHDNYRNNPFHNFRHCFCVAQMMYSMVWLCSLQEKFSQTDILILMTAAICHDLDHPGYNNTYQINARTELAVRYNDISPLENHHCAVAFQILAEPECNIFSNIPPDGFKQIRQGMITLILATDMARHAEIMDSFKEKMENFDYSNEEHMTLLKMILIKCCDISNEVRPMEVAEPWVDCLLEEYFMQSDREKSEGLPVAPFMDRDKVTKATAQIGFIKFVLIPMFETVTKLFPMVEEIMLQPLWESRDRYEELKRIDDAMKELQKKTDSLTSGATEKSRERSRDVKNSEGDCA

- pIC50: 8.22
Compound: COc1ccc(NC(=O)C(C)Nc2nc3c(cnn3-c3ccccc3Cl)c(=O)[nH]2)cc1 (stereo not shown) [WYQ-94-D]
